The text below walks through data of article PMC6100415, “Hepatic Metabolism of Sakuranetin and Its Modulating Effects on Cytochrome P450s and UDP-Glucuronosyltransferases” (Molecules : A Journal of Synthetic Chemistry and Natural …, 2018).

The inhibition is the relative decrease from the control value, in per cent.

One data set deals with T1, UGT1A6 (Homo sapiens, UniProt P19224).
T1 construct: The typical incubation mixture contained human liver microsomes (0.5 mg/mL) along with SKN (10 μM); tissue BD Gentest; host or cells: human liver microsomes
T1 sequence (P19224 27-532): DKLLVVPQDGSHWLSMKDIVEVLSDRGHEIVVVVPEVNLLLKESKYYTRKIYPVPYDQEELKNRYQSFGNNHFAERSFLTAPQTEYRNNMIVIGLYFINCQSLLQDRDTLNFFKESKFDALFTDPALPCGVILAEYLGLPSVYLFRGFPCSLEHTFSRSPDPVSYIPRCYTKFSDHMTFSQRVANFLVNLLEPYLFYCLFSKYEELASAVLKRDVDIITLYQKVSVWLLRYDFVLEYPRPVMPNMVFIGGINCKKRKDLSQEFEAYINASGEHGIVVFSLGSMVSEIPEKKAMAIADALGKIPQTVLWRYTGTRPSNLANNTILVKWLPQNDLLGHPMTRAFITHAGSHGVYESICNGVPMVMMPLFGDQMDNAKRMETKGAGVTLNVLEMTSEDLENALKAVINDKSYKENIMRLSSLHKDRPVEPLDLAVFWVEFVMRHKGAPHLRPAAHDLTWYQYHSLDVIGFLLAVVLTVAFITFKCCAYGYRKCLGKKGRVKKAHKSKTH
In words: UGT inhibition in human liver microsomes, 1-naphthol β-D-glucuronidation (NPG). The data set is classed as in vitro ADME. Conditions: pH 7.4, probe 1-naphthol (200 μM). The protocol: (§1) The formation of a glucuronide conjugate from an isozyme-specific substrate (200 μM, Table 5) was examined to determine UGT activity levels in human liver microsomes. The typical incubation mixture contained human liver microsomes (0.5 mg/mL) along with SKN (10 μM), and MgCl2 (10 mM) in 50 mM Tris-HCl buffer (pH 7.4). The metabolic reaction was initiated by adding UPDGA (2 mM) and stopped by adding an equal volume of ice-cold methanol. […] The conditions used for the operation and analysis of the HPLC-DAD and LC-ESI-MS are provided in the Supplementary Materials and Table S3.
(§2) The solvent flow rate was set at 0.2 mL/min, and the column temperature was set at 35 °C. The LTQ instrument was operated in negative ion electron spray mode at an ion spray voltage of −4.2 kV and a source temperature of 275 °C. The sheath gas flow rate was 35 arb, and the aux gas flow rate was 5 arb. The MS conditions used to detect glucuronides via selected ion monitoring scan mode are summarized in Supplementary Materials Table S3.
In general terms: Liver microsomes are a subcellular fraction often used to study metabolism.

For a further data set, the target named is T2, UGT1A1 (Homo sapiens, UniProt P22309).
T2 construct: The typical incubation mixture contained human liver microsomes (0.5 mg/mL) along with SKN (10 μM); tissue BD Gentest; host or cells: human liver microsomes
T2 sequence (P22309 26-533): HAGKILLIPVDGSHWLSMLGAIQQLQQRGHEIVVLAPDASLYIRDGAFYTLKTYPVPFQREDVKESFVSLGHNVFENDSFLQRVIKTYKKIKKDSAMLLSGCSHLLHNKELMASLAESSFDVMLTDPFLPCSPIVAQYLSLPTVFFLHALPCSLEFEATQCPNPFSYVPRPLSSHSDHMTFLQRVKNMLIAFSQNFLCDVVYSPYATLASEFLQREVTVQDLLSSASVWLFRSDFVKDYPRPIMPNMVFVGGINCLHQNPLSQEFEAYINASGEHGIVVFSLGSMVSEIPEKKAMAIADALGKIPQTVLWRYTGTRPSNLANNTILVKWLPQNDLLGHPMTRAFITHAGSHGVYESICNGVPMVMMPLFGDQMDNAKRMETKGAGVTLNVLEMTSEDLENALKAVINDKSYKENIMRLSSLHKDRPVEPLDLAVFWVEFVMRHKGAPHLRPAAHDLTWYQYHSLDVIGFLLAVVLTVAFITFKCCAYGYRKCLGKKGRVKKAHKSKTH
In words: UGT inhibition in human liver microsomes, 17β-estradiol 3-O-glucuronidation (ESG). The data set is classed as in vitro ADME. Conditions: pH 7.4, probe 17β-estradiol (200 μM). The protocol:
as §1, §2

A further data set addresses T3, UGT1A4 (Homo sapiens, UniProt P22310).
T3 construct: The typical incubation mixture contained human liver microsomes (0.5 mg/mL) along with SKN (10 μM); tissue BD Gentest; host or cells: human liver microsomes
T3 sequence (P22310 29-534): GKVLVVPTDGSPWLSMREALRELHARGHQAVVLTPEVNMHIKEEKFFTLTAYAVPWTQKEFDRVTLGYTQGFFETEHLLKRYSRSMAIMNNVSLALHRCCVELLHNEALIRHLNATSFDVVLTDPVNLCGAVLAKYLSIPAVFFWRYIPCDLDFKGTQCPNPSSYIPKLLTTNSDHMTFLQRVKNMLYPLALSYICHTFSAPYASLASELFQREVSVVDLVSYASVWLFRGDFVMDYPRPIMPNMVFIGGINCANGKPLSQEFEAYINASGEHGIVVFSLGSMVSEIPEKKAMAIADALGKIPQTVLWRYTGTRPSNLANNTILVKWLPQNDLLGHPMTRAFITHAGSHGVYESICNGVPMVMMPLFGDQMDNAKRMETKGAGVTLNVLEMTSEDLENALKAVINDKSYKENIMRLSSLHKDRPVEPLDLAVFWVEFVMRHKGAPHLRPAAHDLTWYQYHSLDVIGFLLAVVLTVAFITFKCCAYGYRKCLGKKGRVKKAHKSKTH
In words: UGT inhibition in human liver microsomes, trifluoperazine N-glucuronidation (TFPG). The data set is classed as in vitro ADME. Conditions: pH 7.4, probe trifluoperazine (200 μM). The protocol:
as §1, §2

Another data set deals with T4, UGT2B7 (Homo sapiens, UniProt P16662).
T4 construct: The typical incubation mixture contained human liver microsomes (0.5 mg/mL) along with SKN (10 μM); tissue BD Gentest; host or cells: human liver microsomes
T4 sequence (P16662 24-529): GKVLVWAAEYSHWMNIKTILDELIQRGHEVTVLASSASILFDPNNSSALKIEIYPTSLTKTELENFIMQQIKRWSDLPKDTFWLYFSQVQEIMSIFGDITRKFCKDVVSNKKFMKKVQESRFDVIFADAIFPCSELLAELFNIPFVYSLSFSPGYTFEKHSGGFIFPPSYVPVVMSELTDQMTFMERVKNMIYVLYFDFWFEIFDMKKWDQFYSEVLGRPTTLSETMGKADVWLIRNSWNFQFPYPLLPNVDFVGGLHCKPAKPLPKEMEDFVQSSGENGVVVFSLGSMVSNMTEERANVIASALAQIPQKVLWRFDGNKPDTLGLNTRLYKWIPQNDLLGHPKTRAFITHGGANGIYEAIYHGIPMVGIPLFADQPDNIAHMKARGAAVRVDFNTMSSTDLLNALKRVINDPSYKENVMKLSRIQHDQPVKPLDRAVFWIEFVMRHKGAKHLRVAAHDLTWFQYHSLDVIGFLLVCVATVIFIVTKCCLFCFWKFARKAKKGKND
Description: UGT inhibition in human liver microsomes, zidovudine 5′-glucuronidation (AZTG). The data set is classed as in vitro ADME. Conditions: pH 7.4, probe zidovudine (200 μM). The protocol: as §1, §2

The target of another data set is CYP2C9 (Homo sapiens, UniProt P11712). Description: in vitro. The conditions noted are these: human liver microsomes, pH 7.4, probe diclofenac (4′-hydroxylation, DCHY), 200 µM.
The mark [1] stands for this setting: SKN 10 μM, 15 min pre-incubation, read-out: % Inhibition in Pre-Incubation.
Setting [2] is: SKN 10 μM, read-out: % Inhibition in Co-Incubation.
Where [3] appears, read: inhibitor 10 µM, human liver microsomes 0.5 mg/mL, read-out: Inhibition (%).

Like-named read-outs stand apart in the source and are kept apart here.

Chain of CYP2C9 (P11712 whole entry): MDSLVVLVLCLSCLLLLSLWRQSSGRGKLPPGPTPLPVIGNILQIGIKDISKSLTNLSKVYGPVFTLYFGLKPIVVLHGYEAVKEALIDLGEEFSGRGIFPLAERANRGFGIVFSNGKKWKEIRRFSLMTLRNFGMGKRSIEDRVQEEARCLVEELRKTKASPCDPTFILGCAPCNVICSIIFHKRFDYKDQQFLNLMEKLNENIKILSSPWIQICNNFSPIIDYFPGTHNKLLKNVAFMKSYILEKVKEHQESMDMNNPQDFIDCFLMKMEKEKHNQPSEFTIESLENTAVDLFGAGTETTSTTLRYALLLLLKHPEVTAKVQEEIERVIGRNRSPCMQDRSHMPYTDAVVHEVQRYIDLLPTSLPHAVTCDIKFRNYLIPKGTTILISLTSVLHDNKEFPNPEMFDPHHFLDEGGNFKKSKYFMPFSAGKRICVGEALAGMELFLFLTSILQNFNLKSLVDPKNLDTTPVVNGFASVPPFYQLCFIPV
Description for CYP2C9: The formation of a metabolite from a CYP isozyme-specific phenotyping reaction (Table 4) was monitored. Each substrate (200 μM), along with SKN (10 μM), was incubated with human liver microsomes (0.5 mg/mL) and an NADPH-generating system in 0.1 M potassium phosphate buffer (pH 7.4) at 37 °C for 60 min in a total volume of 200 μL in a shaking water bath. The metabolic reaction was initiated by adding NADP^+ (1 mM) and stopped by adding 10 μL of trichloroacetic acid. In some experiments, the microsomes were pre-incubated with SKN for 15 min prior to the addition of the cofactor, in order to determine the time-dependent inhibitory effect. […] In contrast, co-incubation refers to experiments in which microsomes and cofactors were incubated in the presence of SKN. After centrifugation of incubation samples at 12,000× g for 15 min at 4 °C, the supernatant (20 μL) was injected into an HPLC-DAD system to analyze the metabolites formation (Supplementary Materials).
The DAD was set at 248 nm for phenacetin O-deethylation (PCOD), 298 nm for bupropion hydroxylation (BPHY), 276 nm for diclofenac 4′-hydroxylation (DCHY), 230 nm for tolbutamide 6-hydroxylation (TOLHY), 280 nm for dextromethorphan O-demethylation (DEXOD), and 250 nm for testosterone 6β-hydroxylation (TSTHY) and testosterone β-D-glucuronidation (TSTG).

Turning to `COc1cc(O)c2c(c1)OC(c1ccc(O)cc1)CC2=O` (racemic) [SKN, (+/−) 7-O-methylnaringenin], the inhibition at 10 μM at UGT1A6 (setting [1]) is 10.1 ± 1.2%; at UGT1A6 (setting [2]) it was 2 ± 0.6%; at UGT1A1 (setting [1]), 1.5 ± 2.1%; on UGT1A1 (setting [2]), 0.4 ± 0.5%; on UGT1A4 (setting [1]), 8.7 ± 1.4%; at UGT1A4 (setting [2]) it was 15.3 ± 3.8%. For the same molecule, the inhibition at 10 μM on UGT2B7 (setting [1]) was found to be 12.6 ± 2.8%; at UGT2B7 (setting [2]), 15.6 ± 0.6%.
On to `O=C1C[C@@H](c2ccc(O)cc2)Oc2cc(O)cc(O)c21` [Naringenin], for which the inhibition at 10 μM at UGT1A6 (setting [3]) was 4.1 ± 3.1%; on UGT1A1 (setting [3]), 10.8 ± 3%; on UGT1A4 (setting [3]), 9.6 ± 3.1%; at UGT2B7 (setting [3]), 6 ± 2.2%. Besides, at CYP2C9, the inhibition at 60 min, 10 µM worked out at 9.1 ± 1.8%.
Take `O=C1C[C@@H](c2ccc(O)c(O)c2)Oc2cc(O)cc(O)c21` [Eriodictyol, 3′-hydroxynaringenin]: the inhibition at 10 μM at UGT1A6 (setting [3]) was 1.9 ± 2.7%; on UGT1A1 (setting [3]), 20.8 ± 3.4%; on UGT1A4 (setting [3]) it was 13.7 ± 3.8%; on UGT2B7 (setting [3]), 8.2 ± 1.4%. At CYP2C9, this molecule yielded an inhibition at 60 min, 10 µM of 1 ± 0.7%.
